The subject of experiment [1] is striatal glutamate release induced by cortical electrical stimulation. As to the kind of experiment: In vivo microdialysis with cortical electrical stimulation. Particulars: 1 mg/kg i.p. The arrangement: species or system rat. As to the method: (§1) Male Sprague-Dawley rats (Charles River Laboratories, Wilmington, MA) weighting between 300–350 g were used in these experiments. Rats were housed 2 per cage and they maintained at a temperature of 22±2°C on a regular 12-h light–dark cycle. Food and water were available ad libitum.
Rats were anesthetized with 3 ml/kg of Equithesin (4.44 g of chloral hydrate, 0.972 g of Na pentobarbital, 2.124 g of MgSO4, 44.4 ml of propylene glycol, 12 ml of ethanol and distilled H2O up to 100 ml of final solution; NIDA Pharmacy, Baltimore, MD) and implanted unilaterally with bipolar stainless steel electrodes, 0.15 mm in diameter (Plastics One, Roanoke, VA), into the orofacial area of the lateral agranular motor cortex (3 mm anterior, 3 and 4 mm lateral, and 4.2 mm below bregma). The electrodes and a head holder (connected to a swivel during stimulation) were fixed on the skull with stainless steel screws and dental acrylic resin. […]
The experiments were performed on freely moving rats 24 h after probe implantation. […] Glutamate content was measured by reverse-phase HPLC coupled to a flourimetric detector (Shimadzu Inc., Tokio, Japan). Glutamate values were transformed as percentage of the mean of the three values before the drug or vehicle injection and transformed values were statistically analyzed.

Experiment [2] relates to rats. The experiment is described as follows: Locomotor activity in habituated rats. The experiment is classed as in vivo, rat. The settings on record: for Locomotor activation: 1 mg/kg i.p.; for Dose producing significant locomotor activation: i.p., 90 min after administration, habituated rats. As for the experimental part: as §1
(§2) All drugs but MSX-3 (Sigma-Aldrich, St. Louis, MI) were provided by CHDI Foundation Inc. (Los Angeles, CA, US). SCH-420814 was administered subcutaneously (s.c.) at 1 ml/kg and the other drugs were administered via intraperitonal (i.p.) injection at volume of 2 ml/kg.
Locomotor activity was measured by placing the animals individually in motility soundproof chambers (50×50 centimeters; Med Associates Inc., VT). Locomotion was measured by counting the number of breaks in the infrared beams of the chambers. The animals were placed in individual acrylic chambers at noon on the day of testing. A lamp inside each chamber remained lit during this period. Following 90 min of habituation, the rats were injected i.p. with different doses of each compound or vehicle and locomotor activity was recorded for 90 min after the drug or vehicle administration. All the animals were tested only once. The effect of different doses of the A2AR antagonists on locomotor activity were analyzed using a one-way analysis of variance (ANOVA), followed by Newman-Keuls' post-hoc test.

For experiment [3], the system named is rats. As to the kind of experiment: Motor output induced by cortical electrical stimulation (EMG recording, power correlation coefficient PCC). Particulars: for Dose significantly reducing PCC: i.p., PCC 40 min after administration. The experiment is classed as in vivo, rat. As for the experimental part: as §1, §2
Rats were anesthetized with 3 ml/kg of Equithesin (4.44 g of chloral hydrate, 0.972 g of Na pentobarbital, 2.124 g of MgSO4, 44.4 ml of propylene glycol, 12 ml of ethanol and distilled H2O up to 100 ml of final solution; NIDA Pharmacy, Baltimore, MD) and implanted unilaterally with bipolar stainless steel electrodes, 0.15 mm in diameter (Plastics One, Roanoke, VA), into the orofacial area of the lateral agranular motor cortex (3 mm anterior, 3 and 4 mm lateral, and 4.2 mm below bregma). The electrodes and a head holder (connected to a swivel during stimulation) were fixed on the skull with stainless steel screws and dental acrylic resin. For the experiments with electromyographic (EMG) recording, electrodes were also implanted in mastication muscles (during the same surgical procedure). Two 5 mm-long incisions were made in the skin on the upper and lower jaw areas to expose the masseter and the lateral pterygoid muscles. […] The bare tips of the electrodes were then held in contact with the masseter and the lateral pterygoid muscles and the skin was closed with surgical staples. The other end of the recording electrodes was encased in a molded plastic pedestal with a round threaded post which was attached to an electrical swivel and then to a differential amplifier (Grass LP511, Grass Instruments, Warwick, RI). The pedestal was secured to the skull with dental cement together with the stimulation electrodes. For the in vivo microdialysis experiments, concentric microdialysis probes with 2-mm long dialysis membranes (Eicom Corp., Tokio, Japan) were implanted respectively into the striatum ipsilateral to the stimulation electrodes (0.0 mm AP, 4.5 ML and 7.0 mm DV).
Rats were placed in individual bowl chambers. Both stimulation electrodes and recording electrodes were attached using flexible shielded cabling to a four channel electrical swivel. Stimulation electrodes were connected to two-coupled constant current isolation units (PSIU6X, Grass Instruments West Warwick, RI) driven by an electrical stimulator (Grass S88X; Grass Instruments). The recording electrodes were connected to a differential amplifier (Grass LP511, West Warwick, RI). This configuration allows the rat to move freely while the stimulation and EMG recordings are taking place. After 60 min of habituation, biphasic current pulse trains (pulse of 0.1 ms at 120–200 µA; 100 Hz, 160 ms trains repeating once per 2 seconds) were delivered. The current intensity was adjusted to the threshold level, defined as the minimal level of current intensity allowing at least 95% of the stimulation pulses to elicit a positive EMG response. Positive EMG response was defined as at least 100% increase of the peak to peak amplitude respect to the background tonic EMG activity lasting more than 100 ms or at least 70% increase in the power of the EMG signal respect to the baseline. Positive EMG responses always matched observable small jaw movements. […]

The subject of experiment [4] is striatal glutamate release induced by cortical electrical stimulation. The arrangement: method as in PMID 19936569. The settings on record: intrastriatal perfusion; previous study; ref [5]; cited from earlier work.
Experiment [5] concerns the target A1R in A1R-A2AR heteromers (Homo sapiens, UniProt P30542). The settings on record: A2AR-A1R cells, [^3H]DPCPX 2 nM.
Experiment [6] deals with T1, A2AR in A1R-A2AR heteromers (Homo sapiens, UniProt P29274). As to the kind of experiment: biochemical.
The target of experiment [7] is T2, A2AR in A2AR-D2R heteromers (Homo sapiens, UniProt P29274). As to the kind of experiment: biochemical.
In experiment [8] the target is T3, A2AR (Homo sapiens, UniProt P29274). The experiment is described as follows: biochemical.
In experiment [9] the target is T2, A2AR in A2AR-D2R heteromers. Particulars: for Reduction of the affinity of A2AR by co-transfection with D2R: A2AR-D2R cells versus A2AR cells; for DCB (dimer cooperativity index): A2AR-D2R cells, A2AR, [^3H]ZM-241385 2 nM.
For experiment [10], the target named is T3, A2AR. The settings on record: A2AR cells; [^3H]ZM-241385 2 nM.
For experiment [11], the target named is T1, A2AR in A1R-A2AR heteromers. Particulars: A2AR-A1R cells, [^3H]ZM-241385 2 nM.

T3 sequence (P29274 whole entry): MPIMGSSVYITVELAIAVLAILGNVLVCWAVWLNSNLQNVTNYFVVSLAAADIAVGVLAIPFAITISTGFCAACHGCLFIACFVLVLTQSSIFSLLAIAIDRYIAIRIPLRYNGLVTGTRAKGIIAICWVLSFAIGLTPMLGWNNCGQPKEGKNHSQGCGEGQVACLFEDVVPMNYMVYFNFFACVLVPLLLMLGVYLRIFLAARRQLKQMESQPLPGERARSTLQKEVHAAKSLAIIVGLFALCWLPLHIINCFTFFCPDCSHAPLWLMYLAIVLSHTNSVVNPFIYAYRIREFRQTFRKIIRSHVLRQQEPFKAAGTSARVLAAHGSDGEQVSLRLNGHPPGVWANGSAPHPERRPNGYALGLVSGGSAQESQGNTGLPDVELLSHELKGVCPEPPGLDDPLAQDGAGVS
T2 sequence (P29274 whole entry): as above
T2 sequence (P14416 whole entry partner): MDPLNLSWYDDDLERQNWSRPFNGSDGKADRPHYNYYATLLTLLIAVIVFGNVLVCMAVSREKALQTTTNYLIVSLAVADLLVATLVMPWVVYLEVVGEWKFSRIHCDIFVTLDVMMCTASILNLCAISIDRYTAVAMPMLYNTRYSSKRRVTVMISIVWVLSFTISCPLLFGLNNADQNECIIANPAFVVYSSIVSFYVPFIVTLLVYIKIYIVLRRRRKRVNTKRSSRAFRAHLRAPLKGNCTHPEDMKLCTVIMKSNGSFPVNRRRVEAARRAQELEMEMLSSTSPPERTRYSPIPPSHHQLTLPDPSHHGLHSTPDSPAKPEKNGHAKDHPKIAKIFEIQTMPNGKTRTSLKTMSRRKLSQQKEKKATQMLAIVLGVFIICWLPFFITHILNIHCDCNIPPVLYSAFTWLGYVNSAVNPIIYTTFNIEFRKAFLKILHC
T1 sequence (P29274 whole entry): as the sequence (P29274 whole entry) above
T1 sequence (P30542 whole entry partner): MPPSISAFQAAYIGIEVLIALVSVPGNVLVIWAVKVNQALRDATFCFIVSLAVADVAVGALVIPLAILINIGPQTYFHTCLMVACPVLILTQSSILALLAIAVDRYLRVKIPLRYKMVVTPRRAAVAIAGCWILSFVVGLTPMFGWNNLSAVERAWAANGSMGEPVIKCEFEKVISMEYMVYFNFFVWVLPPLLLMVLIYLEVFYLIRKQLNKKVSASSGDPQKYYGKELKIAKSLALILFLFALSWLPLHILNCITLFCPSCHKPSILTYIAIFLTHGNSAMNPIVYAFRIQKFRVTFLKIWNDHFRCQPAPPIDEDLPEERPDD
A1R in A1R-A2AR heteromers, sequence (P29274 whole entry): as the sequence (P29274 whole entry) above
A1R in A1R-A2AR heteromers, sequence (P30542 whole entry): as the sequence (P30542 whole entry partner) above

As to `CCn1c(=O)c2c(nc(/C=C/c3ccc(OC)c(OC)c3)n2C)n(CC)c1=O` [KW-6002, (E)-1,3-diethyl-8-(3,4-dimethoxystyryl)-7-methyl-3,7-dihydro-1H-purine-2,6-dione], in experiment [1], the “Effect on striatal glutamate release induced by cortical stimulation” value is reported as “did not modify”. In [2], the Locomotor activation entry is on record as “pronounced locomotor activation” and the “Dose producing significant locomotor activation” value was 0.3 mg/kg. For the same compound, the “Reduction of PCC” value in experiment [3] (1 mg/kg i.p.) is given as “did not reduce PCC”. The “Dose significantly reducing PCC” value in [3] is recorded as greater than 10 mg/kg.

As to `COc1ccc(CCCn2ncc3c2nc(N)n2nc(-c4ccco4)nc32)cc1` [SCH-442416, 2-(2-Furanyl)-7-[3-(4-methoxyphenyl)propyl]-7H-pyrazolo[4,3-e][1], [2], [4]triazolo[1,5-c]pyrimidin-5-amine], in experiment [1], the “Effect on striatal glutamate release induced by cortical stimulation” value is “significantly counteracted”. In addition, in experiment [2], the Locomotor activation entry is recorded as “did not induce locomotor activation” and the “Dose producing significant locomotor activation” value is “higher than 3 mg/kg”. The “Reduction of PCC” value in [3] (1 mg/kg i.p.) is listed as “strongly reduced PCC”. Moreover, the “Dose significantly reducing PCC” value in experiment [3] is recorded as 0.1 mg/kg.

With `C#CCn1c(=O)c2c(nc(/C=C/c3cccc(OC)c3)n2C)n(CCCOP(=O)(O)O)c1=O.[Na].[Na]` [MSX-3, (E)-phosphoric acid mono-(3-{8-[2-(3-methoxyphenyl)vinyl]-7-methyl-2,6-dioxo-1-prop-2-ynyl-1,2,6,7-tetrahydropurin-3-yl}propyl) ester disodium salt], the “Effect on striatal glutamate release induced by cortical electrical stimulation” value in experiment [4] is “almost completely counteracted”. Also, the “Reduction of PCC” value in [3] (dose-response, Fig. 2) was “very effective reduction of PCC”.

With `C[C@H](Cc1ccccc1)Nc1ncnc2c1ncn2[C@@H]1O[C@H](CO)[C@@H](O)[C@H]1O` [R-PIA], in experiment [5], the “B50 (concentration providing half saturation)” value is 30 ± 10 nM.

A word on the Kd: it is the constant that tells how readily two partners part at equilibrium. On to `C#CCn1c(=O)c2c(nc(/C=C/c3cccc(OC)c3)n2C)n(CCCO)c1=O` [MSX-2, (E)-3-(3-hydroxypropyl)-8-[2-(3-methoxyphenyl)vinyl]-7-methyl-1-prop-2-ynyl-3,7-dihydropurine-2,6-dione], for which the Kd in [6] amounted to 4.2 ± 0.3 nM; in experiment [7] it was 7 ± 2 nM; in [8] it was 3.2 ± 0.2 nM. For the same compound, the “Reduction of the affinity of A2AR by co-transfection with D2R” value in experiment [9] is recorded as “two to about nine”. Also, the “DCB (dimer cooperativity index)” value in experiment [9], in [10] and in experiment [11] was 0 in each case.

For `COCCOc1ccc(N2CCN(CCn3ncc4c3nc(N)n3nc(-c5ccco5)nc43)CC2)cc1` [SCH-420814, 2-(2-furanyl)-7-[2-[4-[4-(2-methoxyethoxy)phenyl]-1-piperazinyl]ethyl]-7H-pyrazolo[4,3-e][1], [2], [4]-triazolo[1,5-c]pyrimidin-5-amine], the Kd in [6] is 1.1 ± 0.1 nM; in experiment [7] it was 2.7 ± 0.8 nM; in experiment [8], 0.5 ± 0.1 nM. Moreover, the “Reduction of the affinity of A2AR by co-transfection with D2R” value in [9] was “two to about nine”. Further, the “DCB (dimer cooperativity index)” value in [9], in experiment [10] and in [11] was 0 throughout.

Values taken from publication PMC3019225, “Striatal Pre- and Postsynaptic Profile of Adenosine A2A Receptor Antagonists” (PLoS ONE, 2011).
